Experiment [1] deals with kidneys of NASH mice (AMLN diet). The experiment in a line: Renal inflammation in NASH mouse model, CD3 stained kidney sections. Format: in vivo. To be noted: mice on AMLN diet 30 weeks, then PO treatment 8 weeks twice a day, 7 or 20 mg/kg; kidneys at sacrifice. The protocol: (§1) Compound #157 was evaluated in a mouse model of NASH. Mice were fed with an AMLN diet (high in fat (40%), fructose (22%) and cholesterol (2%)) for 30 weeks prior treatment with Compound #157 for 8 weeks twice a day at a dose of 7 or 20 mg/kg.
(§2) The livers and kidneys were collected at sacrifice. Fibrosis, in particular tubulointerstitial fibrosis, has been evaluated by quantification of the picrosirius red (PSR) staining positive areas. Inflammation has been quantified on CD3 stained sections.

For experiment [2] the test system is unchanged. The experiment is described as follows: Renal fibrosis in NASH mouse model, picrosirius red (PSR) staining of kidneys. In kind it is in vivo. The note with it: mice on AMLN diet 30 weeks, then PO treatment 8 weeks twice a day, 7 or 20 mg/kg; kidneys at sacrifice. The method, then:
as §1, §2

Entries after “also recorded” stand apart in the source; their conditions may differ.

Consider `O=C(Nc1scc(C2CCc3ccccc3C2)c1C(=O)O)c1ccccc1` (stereo not drawn) [Compound #157], for which, in experiment [1], the “decrease of renal inflammation (CD3 stained sections)” value was determined as 50% and the “renal inflammation (lymphocytes infiltration), quantified on CD3 stained sections” value is listed as “attenuate significantly inflammation; also recorded: significantly decreases renal inflammation”. The “renal fibrosis (tubulointerstitial), quantification of picrosirius red (PSR) staining positive areas” value in experiment [2] is listed as “completely resolve fibrosis; also recorded: significantly decreases renal fibrosis”.
